Where a SMILES comes first, the peptide text is derived from it. Bridges are numbered along the chain shown (N, C = ends). [ ]: non-standard residue; d: D form.
Legend:
glucagon = experiment: Suppression of growth hormone, glucagon and insulin (arginine-stimulated, nembutal rats): glucagon; assay type: in vivo; settings: 100 μg/kg. s.c., arginine challenge
Protocol: (§1) Albino male rats are arranged in three groups (nine rats/group) and injected i.p. with nembutal at 50mg/kg. 15 minutes after the nembutal injection they are injected s.c. according to group with (a) test compound, typically 10-2000 μg/kg.; (b) SRIF 200 μg/kg.; or (c) physiological saline. 10 minutes later 0.5 ml. of arginine (300 mg/ml., pH 7.2) is injected into the heart. The rats are decapitated 5 minutes after receiving the arginine, and the blood is collected into Trasylol-EDTA. Appropriate aliquots are then assayed for growth hormone, glucagon and insulin. […] Comparisons between control and experimental values are statistically evaluated by the analysis of variants method and statistical significance (p) at 0.05 or lower is used as the index of activity.

growth hormone = experiment: Suppression of growth hormone, glucagon and insulin (arginine-stimulated, nembutal rats): GH; assay type: in vivo; settings: 100 μg/kg. s.c., arginine challenge (table 5)
Protocol: as §1

insulin = experiment: Suppression of growth hormone, glucagon and insulin (arginine-stimulated, nembutal rats): insulin; assay type: in vivo; settings: 100 μg/kg. s.c., arginine challenge
Protocol: as §1

growth hormone (GH) = experiment: Suppression of growth hormone (duration of activity after sc injection); assay type: in vivo, rats; settings: 1000 μg/kg. sc, rats
Protocol: A subcutaneous (sc) injection of peptide solubilized or suspended in physiological saline, is given to Charles River CD® nonfasted male rats. Matched saline control solution sc injected rats serve as control animals so that every experimental rat is paired with a control rat. The rats are kept in separate cages and 20 minutes before the end of the test time period they are given an intraperitoneal (i.p.) injection of Nembutal® at a dose of 50 mg/kg. Blood samples are obtained by cardiac puncture and the plasma separated for the radioimmunoassay of growth hormone (GH) concentration (ng/ml.). Time periods after injection of 2, 4, 5, and 6 hours are generally used to test the duration of the activity of the peptide to suppress circulating peripheral GH levels. Comparisons between control and experimental GH values at each time are evaluated by the Student "t" test and statistical significance (p) at the 0.05 level or lower is used as the index of activity.

In the case of C[C@@H](O)[C@@H]1NC(=O)[C@H](Cc2ccccc2)NC(=O)[C@H]([C@@H](C)O)NC(=O)[C@H](CCCCN)NC(=O)[C@@H](Cc2c[nH]c3ccccc23)NC(=O)[C@H](Cc2ccccc2)NC(=O)[C@H](Cc2ccccc2)NC(=O)[C@@H](CCC(=O)O)NC(=O)[C@@H](Cc2ccc(O)cc2)NC(=O)[C@@H](N)CSSC[C@@H](C(=O)O)NC(=O)[C@H](CO)NC1=O [J, L-Cysteinyl-D-Tyrosyl-D-Glutamyl-L-Phenylalanyl-L-Phenylalanyl-D-Tryptophyl-L-Lysyl-L-Threonyl-L-Phenylalanyl-L-Threonyl-L-Seryl-L-Cysteine Cyclic (1-12)-Disulfide] (H-C[dY][dE]FF[dW]KTFTSC-OH; disulfide 1-12), the Glucagon (glucagon) is reported as 45 ± 4 pg/mL, the GH (growth hormone) is reported as 128 ± 24 and the Insulin (insulin) is reported as 263 ± 28 μU/ml. The “GH, 2 Hours” value (growth hormone (GH); 2 hours) was 311 ± 68 ng/mL and the “GH, 4 Hours” value (growth hormone (GH); 4 hours) was 179 ± 39 ng/mL.

— patent US4122077A, “Somatostatin analogs” (American Home Products Corporation, priority 1977, dated 1978)
